A word on the IC50: it is the midpoint of a concentration-inhibition curve. Low readings indicate inhibition by little substance, high ones a need for much substance. The Ki is a measure of affinity in units of concentration, obtained from inhibition or displacement. As usually defined, the EC50 is the midpoint of the concentration-response curve. Higher therefore signals lower potency in that assay. For orientation: Kd means the equilibrium constant for the complex coming apart.

Where two headings read alike, the source gives them in different places.

These results are taken from article PMC3692398 (Biochemical pharmacology, 2013).

Test [1] has as its target T1, hNET (Homo sapiens, UniProt P23975). The test is described as follows: cell-based. Format: cell-based.
In test [2] the target is human DA D3 receptor (Homo sapiens, UniProt P35462). In words: [3H]YM-09151-2 binding, CHOp-D3 cells. Conditions: test drugs up to 10 µM; words give concentration range, 'low' = low nanomolar.
human DA D3 receptor, sequence (P35462 whole entry): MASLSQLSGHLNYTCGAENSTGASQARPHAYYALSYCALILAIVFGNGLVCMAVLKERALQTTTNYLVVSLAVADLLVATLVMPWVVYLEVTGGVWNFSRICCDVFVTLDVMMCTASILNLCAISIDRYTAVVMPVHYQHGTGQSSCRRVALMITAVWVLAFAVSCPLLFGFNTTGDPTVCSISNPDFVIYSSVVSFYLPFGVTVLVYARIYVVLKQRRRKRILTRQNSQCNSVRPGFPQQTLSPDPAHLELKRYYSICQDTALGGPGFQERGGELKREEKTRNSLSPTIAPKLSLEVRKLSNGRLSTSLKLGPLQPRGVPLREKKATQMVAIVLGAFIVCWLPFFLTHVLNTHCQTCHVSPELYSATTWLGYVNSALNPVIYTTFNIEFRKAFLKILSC
The target of test [3] is T2, hSigma1 receptor (Homo sapiens, UniProt Q99720). Particulars: read-out: hSigma1 Ki, published value; ref Lee et al., 2008; cited from earlier work.
T2 sequence (Q99720 whole entry): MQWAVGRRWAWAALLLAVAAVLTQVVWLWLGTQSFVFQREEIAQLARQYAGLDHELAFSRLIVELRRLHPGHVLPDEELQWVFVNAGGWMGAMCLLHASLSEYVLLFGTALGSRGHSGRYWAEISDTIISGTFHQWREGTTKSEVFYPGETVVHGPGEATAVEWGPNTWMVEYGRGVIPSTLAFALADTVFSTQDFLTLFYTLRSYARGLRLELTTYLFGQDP
The target of test [4] is T3, hSERT (Homo sapiens, UniProt P31645). In words: Inhibition of [125I]RTI-55 binding, HEK-hSERT membranes.
T3 sequence (P31645 whole entry): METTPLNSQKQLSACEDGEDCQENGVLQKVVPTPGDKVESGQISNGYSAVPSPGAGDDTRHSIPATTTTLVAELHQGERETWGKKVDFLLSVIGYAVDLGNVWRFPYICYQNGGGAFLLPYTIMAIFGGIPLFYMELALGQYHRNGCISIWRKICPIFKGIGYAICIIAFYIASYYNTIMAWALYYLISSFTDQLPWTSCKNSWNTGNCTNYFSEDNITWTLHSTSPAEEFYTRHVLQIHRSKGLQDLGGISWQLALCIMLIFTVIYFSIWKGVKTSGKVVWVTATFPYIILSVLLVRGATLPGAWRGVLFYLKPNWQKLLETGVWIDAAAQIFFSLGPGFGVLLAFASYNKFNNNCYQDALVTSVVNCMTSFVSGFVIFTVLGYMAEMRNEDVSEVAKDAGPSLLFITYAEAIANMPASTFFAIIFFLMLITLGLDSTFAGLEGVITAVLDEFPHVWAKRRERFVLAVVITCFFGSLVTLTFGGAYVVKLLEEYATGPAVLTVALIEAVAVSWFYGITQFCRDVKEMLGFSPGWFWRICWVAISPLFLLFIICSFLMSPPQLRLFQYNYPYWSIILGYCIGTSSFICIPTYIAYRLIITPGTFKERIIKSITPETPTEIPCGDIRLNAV
Test [5] concerns the target T4, h5-HT2A receptor (Homo sapiens, UniProt P28223). In words: Inhibition of 5-HT-stimulated IP-1 formation. Format: cell-based.
Test [6] deals with T4, h5-HT2A receptor. Conditions: data not shown.
Test [7] deals with T5, hVMAT2 (Homo sapiens, UniProt Q05940). In words: Superfusion release of preloaded [3H]NE from HEK-hVMAT2 cells. Format: cell-based.
T5 sequence (Q05940 whole entry, the tested form may be a part): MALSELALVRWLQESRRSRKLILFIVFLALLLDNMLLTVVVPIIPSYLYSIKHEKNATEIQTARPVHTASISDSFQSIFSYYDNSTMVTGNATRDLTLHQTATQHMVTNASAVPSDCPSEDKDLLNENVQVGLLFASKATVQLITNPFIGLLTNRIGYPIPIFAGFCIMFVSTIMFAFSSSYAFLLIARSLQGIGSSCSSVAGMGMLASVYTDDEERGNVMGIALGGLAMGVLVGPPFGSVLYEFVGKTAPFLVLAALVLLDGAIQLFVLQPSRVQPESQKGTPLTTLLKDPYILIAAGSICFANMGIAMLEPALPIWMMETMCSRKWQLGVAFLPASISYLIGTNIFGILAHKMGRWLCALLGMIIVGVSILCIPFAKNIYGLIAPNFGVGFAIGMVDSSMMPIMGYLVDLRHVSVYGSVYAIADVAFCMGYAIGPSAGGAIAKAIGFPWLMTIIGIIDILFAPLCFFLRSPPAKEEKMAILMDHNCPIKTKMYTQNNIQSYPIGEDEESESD
Test [8] concerns the target T2, hSigma1 receptor. In words: [3H]. Format: binding. Conditions: Inhibition of [3H]pentazocine binding Ki ± sem, hSigma1.
For test [9], the target named is T3, hSERT. In words: Inhibition of [3H]5-HT uptake, intact HEK-hSERT cells. The test is classed as cell-based.
Test [10] concerns the target T6, hDAT (Homo sapiens, UniProt Q01959). The test is described as follows: Superfusion release of preloaded [3H]DA from HEK-hDAT cells. The test is classed as cell-based.
Test [11] addresses T3, hSERT. In words: Superfusion release of preloaded [3H]5-HT from HEK-hSERT cells. The test is classed as cell-based.
The target of test [12] is T1, hNET. In words: biochemical. Format: binding.
In test [13] the target is T7, h5-HT1A receptor (Homo sapiens, UniProt P08908).
T7 sequence (P08908 1-422): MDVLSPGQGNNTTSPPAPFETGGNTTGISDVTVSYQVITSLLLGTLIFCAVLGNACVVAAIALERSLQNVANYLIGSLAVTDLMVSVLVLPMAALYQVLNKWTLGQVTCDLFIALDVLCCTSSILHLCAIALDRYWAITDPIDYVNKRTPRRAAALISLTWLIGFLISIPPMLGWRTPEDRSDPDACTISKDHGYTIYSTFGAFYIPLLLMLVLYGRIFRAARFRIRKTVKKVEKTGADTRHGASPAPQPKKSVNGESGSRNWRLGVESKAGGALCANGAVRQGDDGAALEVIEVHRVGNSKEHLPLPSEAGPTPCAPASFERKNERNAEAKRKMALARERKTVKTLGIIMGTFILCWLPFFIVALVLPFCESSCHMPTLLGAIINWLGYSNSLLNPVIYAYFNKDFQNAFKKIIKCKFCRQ
In words: [3H]8-OH-DPAT binding, HEK-h5-HT1A.

For test [14], the target named is T8, h5-HT2C receptor (Homo sapiens, UniProt P28335).
T8 sequence (P28335 33-458): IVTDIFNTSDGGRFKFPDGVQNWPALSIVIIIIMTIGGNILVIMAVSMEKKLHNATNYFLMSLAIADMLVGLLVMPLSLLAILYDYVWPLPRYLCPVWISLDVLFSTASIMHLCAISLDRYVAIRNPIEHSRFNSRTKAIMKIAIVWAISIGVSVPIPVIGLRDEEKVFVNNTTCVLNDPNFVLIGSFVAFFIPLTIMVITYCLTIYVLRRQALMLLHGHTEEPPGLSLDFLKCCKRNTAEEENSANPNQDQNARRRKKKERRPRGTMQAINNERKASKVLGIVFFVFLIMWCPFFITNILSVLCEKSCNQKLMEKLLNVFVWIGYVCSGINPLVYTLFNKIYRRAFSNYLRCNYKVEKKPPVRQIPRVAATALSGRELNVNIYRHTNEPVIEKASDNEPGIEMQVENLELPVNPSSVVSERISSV
In words: Inhibition of 5-HT-stimulated IP-1 formation. The test is classed as cell-based.

For test [15], the target named is T1, hNET. In words: Superfusion release of preloaded [3H]NE from HEK-hNET cells. Format: cell-based.
Test [16] concerns the target T5, hVMAT2. In words: Inhibition of [3H]5-HT uptake, HEK-hVMAT2 membrane preparation. The test is classed as biochemical.
For test [17], the target named is T6, hDAT. In words: Inhibition of [125I]RTI-55 binding, HEK-hDAT membranes.
The target in test [18] is human DA D2 receptor (Homo sapiens, UniProt P14416). Format: binding. Particulars: test drugs up to the maximal concentration tested (10 µM).
human DA D2 receptor, sequence (P14416 whole entry): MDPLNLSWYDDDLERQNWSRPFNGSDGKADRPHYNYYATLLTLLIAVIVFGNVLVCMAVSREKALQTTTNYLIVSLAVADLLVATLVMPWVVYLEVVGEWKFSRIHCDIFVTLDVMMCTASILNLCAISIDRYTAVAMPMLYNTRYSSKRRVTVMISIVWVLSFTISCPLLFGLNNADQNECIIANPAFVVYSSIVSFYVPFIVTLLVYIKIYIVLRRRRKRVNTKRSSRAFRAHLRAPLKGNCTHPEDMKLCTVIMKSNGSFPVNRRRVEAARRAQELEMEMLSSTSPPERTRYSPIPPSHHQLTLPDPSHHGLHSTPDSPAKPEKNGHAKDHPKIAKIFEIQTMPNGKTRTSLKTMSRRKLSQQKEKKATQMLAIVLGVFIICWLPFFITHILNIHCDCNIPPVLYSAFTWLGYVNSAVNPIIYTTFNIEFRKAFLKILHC
For test [19], the target named is human DA D1 receptor (Homo sapiens, UniProt P21728). In words: [3H]SCH23390 binding, LhD1 cells. Particulars: test drugs up to the maximal concentration tested (10 µM).
human DA D1 receptor, sequence (P21728 whole entry): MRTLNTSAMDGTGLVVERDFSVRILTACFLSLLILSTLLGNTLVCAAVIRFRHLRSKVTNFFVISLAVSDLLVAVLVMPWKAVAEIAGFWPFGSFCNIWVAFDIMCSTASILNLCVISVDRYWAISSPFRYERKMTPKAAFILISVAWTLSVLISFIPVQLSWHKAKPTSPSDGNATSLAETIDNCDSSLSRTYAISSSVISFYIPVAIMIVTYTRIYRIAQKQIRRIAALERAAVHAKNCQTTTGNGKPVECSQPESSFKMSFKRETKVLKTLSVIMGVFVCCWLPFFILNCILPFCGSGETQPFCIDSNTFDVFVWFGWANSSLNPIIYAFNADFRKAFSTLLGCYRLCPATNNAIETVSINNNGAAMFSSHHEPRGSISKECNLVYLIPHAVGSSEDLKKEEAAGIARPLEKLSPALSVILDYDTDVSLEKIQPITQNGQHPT
Test [20] deals with T8, h5-HT2C receptor. The test is described as follows: biochemical. Format: binding.
Test [21] deals with T9, human D4.4 receptor (Homo sapiens, UniProt P21917).
T9 sequence (P21917 1-419): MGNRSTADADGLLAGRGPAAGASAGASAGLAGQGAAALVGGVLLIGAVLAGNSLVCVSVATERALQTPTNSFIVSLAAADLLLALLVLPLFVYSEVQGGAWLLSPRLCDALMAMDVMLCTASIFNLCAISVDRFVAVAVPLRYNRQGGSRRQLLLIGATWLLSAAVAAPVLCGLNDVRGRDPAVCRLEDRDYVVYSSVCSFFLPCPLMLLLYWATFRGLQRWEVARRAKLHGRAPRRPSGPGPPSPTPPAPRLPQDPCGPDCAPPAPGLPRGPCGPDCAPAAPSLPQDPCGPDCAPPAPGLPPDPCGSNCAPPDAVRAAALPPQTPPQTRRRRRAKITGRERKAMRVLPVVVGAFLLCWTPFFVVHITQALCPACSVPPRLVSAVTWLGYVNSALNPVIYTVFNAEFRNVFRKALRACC
The test is classed as binding. Conditions: test drugs up to 10 µM; words give concentration range, 'low' = low nanomolar.

In test [22] the target is T7, h5-HT1A receptor. The test is described as follows: Stimulation of [35S]GTPγS binding, HEK-h5-HT1A membranes. The test is classed as biochemical.
Test [23] has as its target T8, h5-HT2C receptor. Format: cell-based. Conditions: data not shown.
For test [24], the target named is T4, h5-HT2A receptor. The test is described as follows: [125I]DOI binding, HEK-h5-HT2A.
In test [25] the target is T5, hVMAT2. The test is described as follows: Inhibition of [3H]DHTB binding, HEK-hVMAT2 membranes.
The target of test [26] is T6, hDAT. The test is described as follows: Inhibition of [3H]DA uptake, intact HEK-hDAT cells. Format: cell-based.
In test [27] the target is T6, hDAT. Particulars: read-out: Kd of radioligand, HEK-hDAT; ref Eshleman et al., 1999; cited from earlier work.
In test [28] the target is T3, hSERT. Particulars: read-out: Kd of radioligand, HEK-hSERT; ref Eshleman et al., 1999; cited from earlier work.
The target in test [29] is T1, hNET. Particulars: read-out: Kd of radioligand, HEK-hNET; ref Eshleman et al., 1999; cited from earlier work.

T6 sequence (Q01959 whole entry, the tested form may be a part): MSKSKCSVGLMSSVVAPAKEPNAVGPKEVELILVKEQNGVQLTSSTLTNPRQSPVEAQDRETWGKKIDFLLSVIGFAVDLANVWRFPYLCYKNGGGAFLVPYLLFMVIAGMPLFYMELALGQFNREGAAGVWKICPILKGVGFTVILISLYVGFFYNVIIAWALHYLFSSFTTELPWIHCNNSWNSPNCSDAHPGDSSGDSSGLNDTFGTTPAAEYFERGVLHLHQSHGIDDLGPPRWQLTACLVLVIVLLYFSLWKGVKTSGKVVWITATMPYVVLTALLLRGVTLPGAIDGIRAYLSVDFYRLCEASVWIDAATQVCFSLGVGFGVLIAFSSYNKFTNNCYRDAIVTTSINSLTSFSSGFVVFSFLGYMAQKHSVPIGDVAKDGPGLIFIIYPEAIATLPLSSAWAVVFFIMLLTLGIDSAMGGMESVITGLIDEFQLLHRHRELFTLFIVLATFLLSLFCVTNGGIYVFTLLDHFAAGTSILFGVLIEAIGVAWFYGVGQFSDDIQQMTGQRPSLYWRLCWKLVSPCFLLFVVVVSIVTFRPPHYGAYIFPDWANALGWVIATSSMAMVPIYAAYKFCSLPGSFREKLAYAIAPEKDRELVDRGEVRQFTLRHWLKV
T4 sequence (P28223 whole entry): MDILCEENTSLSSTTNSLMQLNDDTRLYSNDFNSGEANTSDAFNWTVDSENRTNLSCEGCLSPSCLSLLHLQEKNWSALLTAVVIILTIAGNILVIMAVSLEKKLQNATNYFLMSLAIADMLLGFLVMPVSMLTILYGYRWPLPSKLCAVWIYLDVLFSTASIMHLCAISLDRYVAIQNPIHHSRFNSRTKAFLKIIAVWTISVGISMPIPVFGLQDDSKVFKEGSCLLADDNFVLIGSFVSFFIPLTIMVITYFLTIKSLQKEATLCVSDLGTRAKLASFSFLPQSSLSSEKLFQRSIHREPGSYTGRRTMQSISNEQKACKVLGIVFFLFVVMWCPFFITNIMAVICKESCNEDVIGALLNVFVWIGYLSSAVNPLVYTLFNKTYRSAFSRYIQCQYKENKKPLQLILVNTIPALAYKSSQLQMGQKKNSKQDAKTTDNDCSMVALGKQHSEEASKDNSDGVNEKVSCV
T1 sequence (P23975 whole entry): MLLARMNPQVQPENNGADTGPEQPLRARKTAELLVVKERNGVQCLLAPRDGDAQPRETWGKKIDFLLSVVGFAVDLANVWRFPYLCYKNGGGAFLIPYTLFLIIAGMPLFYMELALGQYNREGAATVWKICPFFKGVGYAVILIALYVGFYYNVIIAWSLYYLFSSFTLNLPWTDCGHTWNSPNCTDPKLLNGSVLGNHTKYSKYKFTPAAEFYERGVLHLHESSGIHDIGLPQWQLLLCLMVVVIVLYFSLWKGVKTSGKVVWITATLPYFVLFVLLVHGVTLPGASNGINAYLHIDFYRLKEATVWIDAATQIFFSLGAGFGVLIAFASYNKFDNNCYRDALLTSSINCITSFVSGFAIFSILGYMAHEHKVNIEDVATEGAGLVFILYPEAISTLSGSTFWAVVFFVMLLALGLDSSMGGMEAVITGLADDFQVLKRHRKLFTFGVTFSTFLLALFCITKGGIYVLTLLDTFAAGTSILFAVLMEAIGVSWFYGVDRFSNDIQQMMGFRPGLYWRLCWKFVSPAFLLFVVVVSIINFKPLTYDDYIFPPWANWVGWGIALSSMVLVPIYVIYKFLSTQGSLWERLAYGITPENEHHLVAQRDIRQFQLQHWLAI

For the compound `CN[C@@H](C)Cc1ccccc1` [METH, (+)methamphetamine, reference compound], the IC50 is 0.026 ± 0.0077 µM in test [1]; 112 ± 12 µM in test [5]; 4.1 ± 1.3 µM in [9]; more than 1000 µM in test [14]; 4.72 ± 0.61 µM in test [16]; 0.026 ± 0.01 µM in test [26]. Further, in test [1], the “ratio of binding Ki to uptake IC50, hNET” value worked out at 53. In [2], the “affinity for the [3H]YM-09151-2 binding site, DA D3 receptor” value is reported as “no measurable affinity”. The Ki in test [3] is 5.2 µM; in test [4] it was 241 ± 8.9 µM; in test [8], 3.18 ± 0.74 µM; in [12] it was 1.39 ± 0.12 µM; in test [13] it was 5.9 ± 0.85 µM; in test [17], 3.96 ± 0.92 µM. Moreover, the inhibition constant Ki in test [20] worked out at 10.2 ± 2.9 µM; in test [24] it was 43.5 ± 9.1 µM; in test [25], 920 ± 110 µM. Moreover, in test [5] (100 nM 5-HT, normalized to maximal inhibition by ketanserin (10 µM)), the “h5-HT2A Inhibition of 5-HT-stimulated IP-1 formation % maximum inhibition ± sem” value worked out at 100.0 ± 0.0%. Moreover, the “h5-HT2A agonist activity, inositol monophosphate” value in test [6] is “partial agonist activity at millimolar concentrations”. Further, the concentration for a half-maximal effect (EC50) in [7] stood at 79 ± 29 µM; in test [10], 0.4 ± 0.12 µM; in test [11], 22.4 ± 0.24 µM; in test [15] it was 0.128 ± 0.036 µM; in [22], 18.1 ± 4.2 µM. In addition, the “Release of [3H]NE % maximum release ± sem or range, hVMAT2” value in test [7] was found to be 95.5 ± 2.1%. Also, the “ratio of binding Ki to uptake IC50, hSERT” value in test [9] ([125I]RTI-55 Ki / [3H]5-HT uptake IC50) is recorded as 59. In addition, the “% maximum release ± sem, hDAT [3H]DA” value in [10] (relative to maximal AUC induced by METH (1 or 10 µM)) came to 101.9 ± 4.9%. In addition, the “% maximum release ± sem, hSERT [3H]5-HT” value in test [11] turned out to be 97.6 ± 7.2%. In test [11] (EC50 compared to PCA), the “fold less potent than PCA to induce [3H]5-HT release” value turned out to be 28 fold. In addition, in test [14] (100 nM 5-HT, normalized to maximal inhibition by SB242084 (1 µM)), the “h5-HT2C Inhibition of 5-HT-stimulated IP-1 formation % maximum inhibition ± sem” value was less than 3%. Besides, in [15] (relative to maximal AUC induced by METH (0.3 or 1 µM)), the “% maximum release ± sem, hNET [3H]NE” value came to 92.7 ± 5.2%. Also, the “affinity for the [3H]YM-09151-2 binding site, DA D2 receptor” value in test [18] is listed as “no measurable affinity”. In addition, the “affinity for the [3H]SCH23390 binding site, DA D1 receptor” value in [19] is listed as “no measurable affinity”. In addition, the “affinity for the [3H]YM-09151-2 binding site, DA D4.4 receptor” value in test [21] is given as “no measurable affinity”. In test [22] (read-out: h5-HT1A Stimulation of [35S]GTPγS binding % maximum stimulation ± sem), the Emax was 66%. The “h5-HT2C agonist activity, inositol monophosphate” value in [23] was “partial agonists with midmicromolar potencies”. Also, the “ratio of binding Ki to uptake IC50, hDAT” value in [26] ([125I]RTI-55 Ki / [3H]DA uptake IC50) is 152.

Regarding `COC(=O)[C@H]1[C@@H](c2ccc(I)cc2)C[C@@H]2CC[C@H]1N2C` [[^125I]RTI-55], the Kd in test [27] was 0.00183 ± 0.00021 µM; in test [28], 0.00098 ± 0.00016 µM; in [29] it was 0.0121 ± 0.0019 µM.
